Reference: patent publication US20240246905A1 (University of Leicester, priority 2021, published 2024)

Assays:
MRSA 252 [1] = assay: Disc diffusion (Kirby-Bauer), zone of inhibition; assay type: cell-based, Staphylococcus aureus; settings: 500 μg/mL, '/' = no zone
How it was run: (§1)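 Kirby-Bauer per CLSI 2017: 1 in 200 dilutions of overnight cultures (LB for Gram-negatives, TSB for Gram-positives) spread on Mueller-Hinton agar. Discs loaded with 50 μL antibiotic were added and plates incubated 24 h at 37 °C. Zone of inhibition recorded.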

MSSA 476 [2] = assay: Disc diffusion (Kirby-Bauer), zone of inhibition; assay type: cell-based, Staphylococcus aureus; settings: 500 μg/mL, '/' = no zone
How it was run: as §1

HEK293 cells = assay: Cytotoxicity assay, resazurin (CO-ADD)
How it was run: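 HEK293 cells in DMEM with 10% FBS were exposed to compounds at a single concentration of 32 μg/mL for 20 h at 37° C, 5% CO2. Viability read by resazurin fluorescence (2.3 μg/mL final, 3 h; F560/590). CC50 from sigmoidal dose-response fitting.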

MRSA 252 [3] = assay: MIC, broth micro-dilution; assay type: cell-based, Staphylococcus aureus
How it was run: (§2)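 Broth micro-dilution followed CLSI 2017: 1:2 antibiotic dilutions in TSB were inoculated at 5×10^5 CFU/mL. OD was recorded every 12 min over 18 h at 37 °C, and MIC was derived from sigmoidal dose-response fits.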

MSSA 476 [4] = assay: MIC, broth micro-dilution; assay type: cell-based, Staphylococcus aureus
How it was run: as §2

red blood cells = assay: Hemolysis assay (CO-ADD); assay type: cell-based; settings: 32 μg/mL highest concentration tested
Excerpt: A problem often encountered by emerging drugs is hemolysis, also known as drug-induced immune hemolytic anemia.

[5] = system: Staphylococcus aureus 15981; assay: Disc diffusion (Kirby-Bauer), zone of inhibition; assay type: cell-based; settings: Staphylococcus aureus 15981; 500 μg/mL; '/' = no zone
How it was run: as §1

Escherichia coli DH5α = assay: Disc diffusion (Kirby-Bauer), zone of inhibition; assay type: cell-based; settings: Escherichia coli DH5α; 500 μg/mL; '/' = no zone
How it was run: as §1

[6] = system: various Staphylococcus aureus strains; assay: Disc diffusion, Staphylococcus aureus strain study; assay type: cell-based; settings: 500 μg/mL
Excerpt: At this point in the study it was decided to perform a disc diffusion assay study on 50 S. aureus strains. […] Moreover, by employing a range of mutant strains of S. aureus with specific gene-deletions, it was believed that if particular strains were resistant to the lead compounds, it could provide insights on the likely protein target of the lead antibiotics. However, all six of the compounds utilized in this study were able to inhibit growth of all 50 strains of S. aureus assayed at the chosen concentration of 500 μg/mL concentration (Table 5).
E. coli DH5α, P. aeruginosa PA01 and the 53 S. aureus strains were recovered from frozen (−80° C.) glycerol (15% v/v) stocks on Lysogeny agar (LA)—Gram negative and trypticase soy agar (TSA)—plates at 37° C. for 24 hours. Single colonies were placed in either 3 mL Lysogeny broth (LB)—Gram negative or trypticase soy broth (TSB)—Gram positive and incubated at 37° C., 250 rpm for 18 hours.
The antibiotic activity was determined using a Kirby-Bauer method according to Clinical Standard Laboratory Institute (CSLI) Guidelines (2017). Briefly, 180 μL of a 1 in 200 dilution (in LB or TSB) of overnight cultures of selected Gram negative and Gram positive bacteria were applied to an agar plate containing the solid growth medium, Mueller-Hinton agar (MHA). Sterile discs, inoculated with 50 μL of antibiotic, were first added to the agar plate before the plates were incubated for 24 hours at 37° C. Following incubation, the zone of inhibition (if it existed) was recorded.

(2-Isocyanovinyl)-4-acetaamido benzene [Compound 22]
Zone of inhibition (MRSA 252 [1]): 20 mm
Zone of inhibition (MSSA 476 [2]): 16 mm
Concentration toxic to HEK 293 cells (HEK293 cells; HEK 293): >32000 ng/mL
toxicity towards the HEK293 cell line (in words) (HEK293 cells; set concentration of 32 μg/mL): no toxicity
MIC (MRSA 252 [3]): 55 µg/mL
MIC (MSSA 476 [4]): 172 µg/mL
Hemolytic activity (HC10) (red blood cells): >32 µg/mL
Zone of inhibition [5]: 18 mm
Zone of inhibition (Escherichia coli DH5α): 20 mm
Zone of inhibition ([6]; strain ASARM 61): 18 mm
Zone of inhibition ([6]; strain ASARM 70): 18 mm
Zone of inhibition ([6]; strain ASARM 71): 20 mm
Zone of inhibition ([6]; strain ASARM 72): 22 mm
Zone of inhibition ([6]; strain ASARM 73): 20 mm
Zone of inhibition ([6]; strain ASARM 75): 22 mm
Zone of inhibition ([6]; strain ASARM 76): 26 mm
Zone of inhibition ([6]; strain ASARM 77): 24 mm
Zone of inhibition ([6]; strain ASARM 79): 22 mm
Zone of inhibition ([6]; strain ASARM 80): 26 mm
Zone of inhibition ([6]; strain EOE 3): 20 mm
Zone of inhibition ([6]; strain EOE 23): 22 mm
Zone of inhibition ([6]; strain EOE 30): 20 mm
Zone of inhibition ([6]; strain EOE 35): 18 mm
Zone of inhibition ([6]; strain EOE 41): 20 mm
Zone of inhibition ([6]; strain EOE 42): 22 mm
Zone of inhibition ([6]; strain EOE 45): 26 mm
Zone of inhibition ([6]; strain EOE 52): 22 mm
Zone of inhibition ([6]; strain EOE 54): 16 mm
Zone of inhibition ([6]; strain EOE 57): 18 mm
Zone of inhibition ([6]; strain MRSA 252): 20 mm
Zone of inhibition ([6]; strain S139_7_7): 16 mm
Zone of inhibition ([6]; strain S197_1_1): 22 mm
Zone of inhibition ([6]; strain S197_1_8): 24 mm
Zone of inhibition ([6]; strain S197_1_9): 26 mm
Zone of inhibition ([6]; strain S197_1_10): 22 mm
Zone of inhibition ([6]; strain S295_1_1): 20 mm
Zone of inhibition ([6]; strain S295_1_2): 20 mm
Zone of inhibition ([6]; strain S295_1_3): 20 mm
Zone of inhibition ([6]; strain S364_5_11): 22 mm
Zone of inhibition ([6]; strain S364_5_12): 20 mm
Zone of inhibition ([6]; strain Sa_TPS 3026): 20 mm
Zone of inhibition ([6]; strain Sa_TPS 3072): 22 mm
Zone of inhibition ([6]; strain Sa_TPS 3092): 24 mm
Zone of inhibition ([6]; strain Sa_TPS 3097): 24 mm
Zone of inhibition ([6]; strain Sa_TPS 3103): 22 mm
Zone of inhibition ([6]; strain Sa_TPS 3104): 20 mm
Zone of inhibition ([6]; strain Sa_TPS 3106): 26 mm
Zone of inhibition ([6]; strain Sa_TPS 3118): 18 mm
Zone of inhibition ([6]; strain Sa_TPS 3133): 18 mm
Zone of inhibition ([6]; strain Sa_TPS 3134): 18 mm
Zone of inhibition ([6]; strain USFL 008): 14 mm
Zone of inhibition ([6]; strain USFL 009): 14 mm
Zone of inhibition ([6]; strain USFL 012): 16 mm
Zone of inhibition ([6]; strain USFL 016): 18 mm
Zone of inhibition ([6]; strain USFL 018): 18 mm
Zone of inhibition ([6]; strain USFL 020): 16 mm
Zone of inhibition ([6]; strain USFL 021): 16 mm
Zone of inhibition ([6]; strain USFL 028): 15 mm
Zone of inhibition ([6]; strain USFL 035): 16 mm
Zone of inhibition ([6]; strain USFL 054): 19 mm
Zone of inhibition ([6]; strain not given): 18 mm
